Patent US12497396B2, “Nitrogen-containing heterocyclic derivatives, method therefor and application therefor as inhibitors of KRAS G12C for the treatment of cancers” (SHANGHAI HANSOH BIOMEDICAL CO., LTD., priority 2019, dated 2025)

Test system: human lung cancer NCI-H358 cell xenograft
Assay: In vivo pharmacodynamics on human lung cancer NCI-H358 cell xenograft tumor model
Set-up: species or system BALB/c nude mice
Protocol: • BALB/c nude mice, 6-8 weeks old, female, purchased from Shanghai Xipuer-Bikai Experimental Animal Co., Ltd. 6.3.2 Cell Culture and Cell Suspension Preparation • 1) MiaPaca-2 cells were taken out from the cell bank and resuscitated with DMEM medium (DMEM+10% FBS), the resuscitated cells were placed in a cell culture flask (labeled with cell type, date, name of cultured person, etc.) and cultured in a CO2 incubator (incubator temperature was 37° C., CO2 concentration was 5%) (the method of resuscitating NCI-H358 cells was the same as MiaPaca-2 cells in test embodiment 5, and the culture medium was changed to RPMI-1640 medium). • 2) Passage was conducted every three to five days, and the cells was continued to be cultured in CO2 incubator after passage. The process was repeated until the cell count meets the in vivo pharmacodynamic requirements. • 3) MiaPaca-2 cells were collected and counted by automatic cell counter, according to the counting results, the cells were re-suspended with PBS and Matrigel (ratio was 1:1) to make cell suspension (cell density was 5×10^7/mL), then placed in a ice box for use (NCI-H358 cells were re-suspended with PBS without adding Matrigel, cell density was 1×10^8/mL). 6.3.3 Sample Preparation: • 1) Solvent: solvent (0.5% CMC-Na+1% Tween 80), storage condition: 4° C.
0.5 g of CMC-Na was weighted, dissolved in ddH2O, then 1.0 mL of Tween 80 was added and the mixture was stirred to mix well, and the volume was finally set to 100 mL. • 2) Compound to be tested (10 mg/kg) was prepared:
8.42 mg of AMG510 compound was weighted, 8.260 mL of solvent was added, a uniform solution was obtained by ultrasound, vortexing and stirring.
7.81 mg of embodiment compound 165-1 was weighted, 7.654 mL of solvent was added, a uniform solution was obtained by ultrasound, vortexing and stirring.
• 1) Before inoculation, nude mice were labeled with disposable universal ear tags of rats and mice; • 2) when inoculating, the cell suspension was mixed well, 0.1-1 mL cell suspension was extracted with a 1 mL syringe, bubbles were removed, and then the syringe was put on an ice bag for later use; • 3) the nude mice was held with left hand, the right back of nude mice near the right shoulder (inoculation site) was disinfected with 75% alcohol, and inoculation was started after 30 seconds; • 4) the experimental nude mice were inoculated in turn (each mouse was inoculated with 0.1 mL of cell suspension); 6.3.4 Tumor-Bearing Mouse were Measured, Grouped, and Administered: • 1) According to the tumor growth, the tumor was measured on the 18th day after inoculation, and the tumor size was calculated. tumor volume (mm^3)=length (mm)×width (mm)×width (mm)/2 Tumor volume calculation: • 2) The tumor-bearing mice were grouped according to their body weight and tumor size using a randomized grouping method. • 3) According to the grouping results, the administration of the test drug was started (administration method: oral administration; administration dose: 10 mg/kg; administration volume: 10 mL/kg; administration frequency: once a day; administration period: 21 days; solvents: 0.5% CMC/1% Tween 80). • 4) The tumor was measured and weighed twice a week after the test drug was started to be given. • 5) After the experiment, all animals were euthanized. • 6) Data was processed with software such as Excel. […]

For `C=CC(=O)N1C[C@H](C)N(c2nc(=O)n(-c3c(SC)ccnc3C(C)C)c3nc(-c4c(N)ccc(Cl)c4F)c(Cl)cc23)C[C@H]1C` (single isomer, unassigned) [Embodiment 165-1], the “TGI (%) Day 15” value (Day 15, 10 mpk oral once a day) was 67.41%, the “tumor volume (mm^3, Mean ± SD) Day 15” value (Day 15, 10 mpk oral once a day) was 267 ± 155 mm^3 and the “ΔT/ΔC(%) Day 15” value (Day 15, 10 mpk oral once a day) was 32.59%. For the same molecule, the “tumor volume (mm^3, Mean ± SD) Day 0” value (baseline Day 0, 10 mpk oral once a day) was 203 ± 74 mm^3.
